Data as given in PubChem BioAssay (NCI).
Several values for one entry are separate records, joined by “and”; a condition that tells them apart may be missing. Equal entries are not always repeated.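 48-hour exposure; five concentrations; linearly interpolated endpoints. At the GI50, growth is halved. TGI marks complete inhibition of growth.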

Tests used:
Test in all cases: inhibition of tumour cell growth, NCI panel, 48 h
NCI-H23 lung = system: NCI-H23 lung
UACC-62 melanoma = system: UACC-62 melanoma
IGROV1 ovarian = system: IGROV1 ovarian
DU-145 prostate = system: DU-145 prostate
SNB-19 CNS = system: SNB-19 CNS
A549 NSCLC = system: A549 NSCLC
COLO 205 colon = system: COLO 205 colon
T-47D breast = system: T-47D breast
HCC-2998 colon = system: HCC-2998 colon

SMILES	TGI (NCI-H23 lung) [µM]	TGI (UACC-62 melanoma) [µM]	TGI (IGROV1 ovarian) [µM]	TGI (DU-145 prostate) [µM]	TGI (SNB-19 CNS) [µM]	TGI (A549 NSCLC) [µM]	TGI (COLO 205 colon) [µM]	TGI (T-47D breast) [µM]	TGI (HCC-2998 colon) [µM]	GI50 (IGROV1 ovarian)	GI50 (SNB-19 CNS)
N#Cc1c(-c2ccccc2)cc(-c2ccc(Cl)cc2)[nH]c1=S	38.2	92.1	89.8	> 100	> 100	> 100	71.1	> 100	> 100	–	–
CCCCCCCCCc1nn2c(Cc3ccccc3)nnc2s1	38.8	37.7	–	51.4	36.1	41.5	41	97.5	–	–	–
O=C1CSC2=NC3=C(COC/C3=C\c3ccc(Br)cc3)C(c3ccc(Br)cc3)N12 (centres undefined)	> 100	> 100	> 100	> 100	> 100	–	> 100	> 100	> 100	–	–
CCOP(=O)(/C=C\n1ccc(N)nc1=O)OCC	> 100	> 100	> 100	> 100	> 100	> 100	> 100	> 100	–	–	–
CN(C)CCNC(=O)c1cccc2nc(-c3ccccc3)oc12	> 100	> 100	> 100	–	> 79.8	> 100	42.8	–	> 100	–	–
COc1nc(C#CC(C)(C)C)nc(OC)n1	68.5	42	> 100	68.3	> 100	> 100	> 100	> 100	–	–	–
CCOC(=O)C1CCC(=O)N1C(=O)c1ccccc1 (centres undefined)	> 100	> 100	> 100	> 100	> 100	> 100	–	> 100	> 100	–	–
CC(=O)OC1CCC2C3CCc4c(C)ccc(OS(=O)(=O)c5ccccc5)c4C3CCC12C (centres undefined)	> 100	> 100	> 100	> 100	> 100	–	> 100	–	> 100	–	–
CCOC(=O)c1nnsc1NN	> 100	> 100	> 100	> 100	> 100	> 100	> 100	–	> 100	–	–
CCOC(=O)c1nc2cc(C(F)(F)F)ccc2nc1Nc1ccc(C(=O)NC(C(=O)OCC)C(=O)OCC)cc1	> 100	27.6	54.2	> 100	55.3	–	> 100	–	> 100	–	–
CCCSc1nc(-c2ccc(OC)cc2)c(C#N)c(=O)n1C1OC(COC(C)=O)C(OC(C)=O)C(OC(C)=O)C1OC(C)=O (centres undefined)	> 100	> 100	> 100	–	> 100	–	> 100	–	–	> 100 µM and 43.4 µM	> 100 µM and 45.4 µM
C[C@H]1SC(c2ccc(Cl)cc2Cl)N(NC(=O)c2ccncc2)C1=O (some centres undefined)	> 100	> 100	> 100	> 100	> 100	–	> 100	> 100	–	–	–
CC1(C)[C@H]2CC[C@@]13C(=O)N1C(=O)O[C@@H]([C@H]1Cl)C(Cl)(COCc1ccccc1)C(=O)OCCO[C@H]3C2 (some centres undefined)	> 100	> 100	> 100	–	> 100	> 100	36.6	> 100	> 100	–	–
